Experimental findings from patent US12662473B2, “Inhibitors for programmed cell necrosis and preparation method therefor and use thereof” (SHANGHAI INSTITUTE OF ORGANIC CHEMISTRY, CHINESE ACADEMY OF …, priority 2019, dated 2026) are described below.

The subject of this assay is FADD−/− Jurkat cells. Put plainly: TNF-induced programmed cell necrosis inhibition, Cell Titer-Glo viability. The following applies: Homo sapiens, Jurkat. The assay is classed as cell-based. In short, it runs like this: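 FADD-deficient Jurkat cells (2.5×10^5/mL) were pretreated 1 h at 37 °C with compound plus Smac (50 nM as added), then stimulated with TNFα (50 ng/mL as added) for 14 h at 37 °C, 5% CO2. Viability was measured as ATP by CellTiter-Glo luminescence, with unstimulated DMSO wells as 100%. EC50 values were derived.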

Where two headings read alike, the source gives them in different places.

Usually EC50 stands for the midpoint of the concentration-response curve. Regarding `Cc1noc([C@@H]2CCCN2C(=O)C(C)(C)Oc2ccc(Cl)cc2)n1` [QY-1-98], the EC50 (14 h, TNFa + SM164, read-out: EC50 inhibitory activity on programmed cell necrosis) was 1530 nM and the EC50 (TNFa, read-out: EC50 inhibitory activity on programmed cell necrosis) came out at 128 nM.
